A short description of data set [1]: Acetic Acid-Writhing Test according to Koster et al., analgetic activity, per os. The note with it: for inhibition in vivo at 3 mg/kg: 3.0 mg/kg per os; for inhibition in vivo at 6 mg/kg: 6.0 mg/kg per os; for factor for the increase in activity of the analgetic action in combination with Flupirtin: compared to analgetic side activity component of the pure antiphlogistic; for ED50: 0.5 h, substance alone, 30 minutes after giving, linear regression; for inhibition in vivo at 5 mg/kg: 5.0 mg/kg per os; for inhibition in vivo at 10 mg/kg: 10.0 mg/kg per os. The data set is classed as in vivo, white mouse (NMRI-Mouse). The procedure:
These investigations were carried out in the Acetic Acid Test (Writhing Test) on the white mouse.
Writhing According to Koster et al; Fed.
(§1) Animal: White Mouse (NMRI-Mouse); Application: per os
Writhing Test According to Koster et al.: Fed.
as §1
The pain reaction is expressed as a characteristic stretching of the animals ("writhing syndrome") which persists in irregular time intervals for a long period of time after the injection of the acetic acid. The dosage dependent suppression of the frequency of the stretching motion compared to an untreated control group is expressed in percent as analgetic effect. The evaluation is carried out by determination of the ED50 (Method of Linear Regression).
The acetic acid test is marked by the fact that not only is there detectable the effect of strong, central acting analgetics but also preponderantly peripherally acting analgetics-antipyretics and antiphlogistically active pharmaceuticals such as phenyl butazone, Indometacin and others. Therewith the effect in this procedure refers to a peripheral component of the analgesic.
A general note: Writhing tests count abdominal constrictions after an irritant is injected.

For data set [2] the following is noted: antiphlogistic alone, per os, mouse; cited from earlier work.
A short description of data set [3]: Randall-Selitto Test, inflammation pain, per os. As to conditions: for ED50: Rattus norvegicus, po, 0.5 h. The class given is in vivo, albino rat (Sprague-Dawley). The procedure:
Randall-Selitto-Test According to Randall, Selitto, Arch. int.
Animal: Albino-Rat (Sprague-Dawley); Application: per os
Sucker, Fuchs, Speiser, Pharmazeutische Technologie, Thieme-Verlag, Stuttgart, 1978. Short Description of the Pharmacological Test Methods Mentioned in the Application Randall-Selitto-Test (Inflammation Pain on the Rat)
In accordance with the method of Randall and Selitto (L. O. Randall, J. J. Selitto, Arch. int. Pharmacodyn., Volume 111, pages 409-418, 1957) rats were injected subplantarly with […] of a 20% (in dimineralized water) brewer's yeast suspension in the right hind paw. 21/2 hours later the test materials were dispensed and 30 minutes later the swelling pain measured with an Algesiemeter as pressure (in grams) on the inflamed paw (apparatus of Ugo Basile, Milan, Italy). As criteria there are considered the defensive reaction of the animals drawing the paw away and/or freeing themselves from the grip of the experimenters. The effect of the material was determined from the increase of the swelling pain compared to the untreated control group. The experimental procedure different from the original method in that the materials were applied 21/2 hours after the setting of edema and not simultaneously therewith. In this way there should be prevented the development of edema, being checked by a possible antiphlogistic action and the analgesy superimposed or simulated.
The ED50 was determined by means of the method of linear regression.

Data set [4] in a line: Bradykinin-Edema Test, antiphlogistic activity, per os. The note with it: alone. The class given is in vivo, albino rat (Sprague-Dawley). The procedure: Bradykinin-Edema-Test Relying On and Modification of the Method of
Morsdorf et al (Arch. int. Pharmacodyn. 192,111-127 (1971). Animal:
Albino-rat (Sprague-Dawley):
Relying on the modification of the method of Morsdorf et al (Arch. int. Pharmacodyn. Volume 192, pages 111-127 (1971)) male rats received subplantarly in the right hind paw an injection of a 1% carrageenin solution (Carrageenin, Type IV, Sigma C-3889). One hour and four hours later there was determined the volume of the paw. To measure the volume there was used a volume meter (Rhema-Labortechnik Company, D-6238 Hofheim, Type 2060). Directly after the first measurement the test substance was dispensed by means of a gullet stomach catheter. There was calculated the increase in the swelling of the paw in the second measurement compared to the first measurement in absolute values (ml). The evaluation included the determination of the percent average value of the difference of the edema volumes one and four hours after receiving the inflammatory solution. The edema inhibiting action was calculated in percent from the edema volume measured by water displacement in comparison to the edema volume of the untreated inflammed control group.
As the single change in comparison to the Carrageenin-Edema Test in place of Carrageenin there was injected subplantarly Bradykinin (Sigma B 3259) 0.01 mg/animal in 0.1 ml of a 0.9% sodium chloride solution.

The mark [5] stands for this setting: Mus musculus, po, read-out: Activity in %.
Setting [6] is: Mus musculus, po, per os, read-out: ED50.
Where [7] appears, read: Mus musculus, po, alone, 4.0 mg/kg per os, read-out: Activity in %.

Structures are written as SMILES. Where a name gives a salt, the structure may show the parent alone. Read-outs that look alike come from different tables or passages of the source.

The source of these data is US4778799A, “Synergistic combination of flupirtin and non-steroidal antiphlogistic” (priority 1985, dated 1988).

Take `COc1ccc2cc([C@H](C)C(=O)O)ccc2c1` [Naproxen]: the inhibition in vivo at 0.38 mg/kg in data set [1] (Mus musculus, po, alone, 0.38 mg/kg per os) was 21.7%. The inhibition in vivo at 0.75 mg/kg in data set [1] (Mus musculus, po, alone, 0.75 mg/kg per os) turned out to be 42%. The inhibition in vivo at 1.5 mg/kg in data set [1] (Mus musculus, po, alone, 1.5 mg/kg per os) was determined as 43.4%. In data set [1] (Mus musculus, po, alone), this molecule displayed an inhibition in vivo at 3 mg/kg of 53.8% and an inhibition in vivo at 6 mg/kg of 70%. In data set [1] (Mus musculus, po, alone, 12.0 mg/kg per os), this molecule showed an inhibition in vivo at 12 mg/kg of 74.1%. The inhibition in vivo at 24 mg/kg in data set [1] (Mus musculus, po, alone, 24.0 mg/kg per os) amounted to 54.5%. In addition, the “factor for the increase in activity of the analgetic action in combination with Flupirtin” value (from here on “factor for the increase in activity”) in data set [1] is reported as 2-15.
Regarding `CC(=O)Oc1ccccc1C(=O)O` [Acetylsalicylic Acid, acetylsalicylic acid], in data set [1] (Mus musculus, po, per os), the 50% effective dose (ED50) (usually the dose at which the effect has come halfway, by size or by number of responders) came to 149 mg/kg. In data set [1] (setting [5]), the inhibition in vivo at 25 mg/kg is 11%, the inhibition in vivo at 50 mg/kg worked out at 30.1%, the inhibition in vivo at 75 mg/kg came to 39% and the inhibition in vivo at 100 mg/kg came out at 41.1%. In addition, in data set [1] (setting [5]), the inhibition in vivo at 150 mg/kg turned out to be 43.2%, the inhibition in vivo at 200 mg/kg is 59.6% and the inhibition in vivo at 400 mg/kg turned out to be 71.2%. In addition, the “factor for the increase in activity” value in data set [1] was 2-15. In addition, the LD50 (in general, the dose expected to kill half of the subjects tested) in data set [2] is reported as 815 mg/kg.
With `COc1ccc2c(c1)c(CC(=O)N[C@@H](C=O)[C@@H](O)[C@H](O)[C@H](O)CO)c(C)n2C(=O)c1ccc(Cl)cc1` [Glucametacin], the “factor for the increase in activity” value in data set [1] is 2-15.
With `CCOC(=O)Nc1ccc(NCc2ccc(F)cc2)nc1N` [Flupirtin (Hydrochloride)], the ED50 was 30.9 mg/kg in data set [3] and “no ED50” in data set [4] (per os, printed in words: no ED50 defineable). Further, the Activity in % in data set [3] (alone, 10.0 mg/kg per os) is -8.3%; in data set [3] (alone, 20.0 mg/kg per os), 23.2%; in data set [3] (alone, 30.0 mg/kg per os), 45.8%; in data set [3] (alone, 40.0 mg/kg per os), 67.5%. Also, the “Activity in % (- = inhibiting)” value in data set [4] (5.0 mg/kg per os) is reported as “+4.6%”; in data set [4] (10.0 mg/kg per os), -25.0%; in data set [4] (20.0 mg/kg per os), -13.6%; in data set [4] (30.0 mg/kg per os) it was -2.3%.
On to `CN1C(C(=O)Nc2ccccn2)=C(O)c2ccccc2S1(=O)=O` [Piroxicam], for which, in data set [1] (setting [6]), the ED50 was found to be 3.46 mg/kg. The same molecule came in with an inhibition in vivo at 1 mg/kg in data set [1] (Mus musculus, po, alone, 1.0 mg/kg per os) of 38.2%. Also, in data set [1] (Mus musculus, po, alone), the inhibition in vivo at 3 mg/kg was 40%, the inhibition in vivo at 5 mg/kg was 61.8% and the inhibition in vivo at 10 mg/kg stood at 70.9%. For the same molecule, in data set [1] (setting [7]), the inhibition in vivo at 4 mg/kg came to 53.6%. The inhibition in vivo at 20 mg/kg in data set [1] (Mus musculus, po, alone, 20.0 mg/kg per os) was 49.1%. Besides, the “factor for the increase in activity” value in data set [1] is listed as 2-15. Further, the LD50 in data set [2] is 350 mg/kg.
As for `CC1=C(CC(=O)O)c2cc(F)ccc2/C1=C\c1ccc([S+](C)[O-])cc1` (stereo not shown) [Sulindac], in data set [1] (setting [6]), the ED50 came to 2.3 mg/kg. In data set [1] (setting [5]), the inhibition in vivo at 0.47 mg/kg stood at 29.6%, the inhibition in vivo at 0.94 mg/kg stood at 44.6%, the inhibition in vivo at 1.88 mg/kg is 49.7% and the inhibition in vivo at 3.75 mg/kg was found to be 56%. Also, in data set [1] (setting [5]), the inhibition in vivo at 7.5 mg/kg is 61%, the inhibition in vivo at 15 mg/kg was 71.1% and the inhibition in vivo at 30 mg/kg turned out to be 72.3%. In data set [1], the “factor for the increase in activity” value is 2-15.
Consider `Cc1cc(NC(=O)C2=C(O)c3ccccc3S(=O)(=O)N2C)no1` [Isoxicam], for which the ED50 in data set [1] (setting [6]) came to 6.6 mg/kg. For the same molecule, in data set [1] (Mus musculus, po, alone), the inhibition in vivo at 3 mg/kg was 10.1%, the inhibition in vivo at 5 mg/kg was 36.7%, the inhibition in vivo at 6 mg/kg turned out to be 46% and the inhibition in vivo at 10 mg/kg worked out at 66.2%. The inhibition in vivo at 4 mg/kg in data set [1] (setting [7]) worked out at 30.2%. This molecule also displayed an inhibition in vivo at 7 mg/kg in data set [1] (Mus musculus, po, alone, 7.0 mg/kg per os) of 51.1%. Besides, the inhibition in vivo at 8 mg/kg in data set [1] (Mus musculus, po, alone, 8.0 mg/kg per os, read-out: Activity in %) amounted to 62.6%. Moreover, the “factor for the increase in activity” value in data set [1] was 2-15.
Regarding `COc1ccc2c(c1)c(CC(=O)O)c(C)n2C(=O)c1ccc(Cl)cc1` [Indometacin], the ED50 was found to be 4.3 mg/kg in data set [1] (Mus musculus, po, per os) and 2.77 mg/kg in data set [3] (alone, per os, 30 minutes after giving, linear regression, read-out: ED50). In addition, the inhibition in vivo at 2 mg/kg in data set [1] (setting [5]) turned out to be 17.3%. Besides, the inhibition in vivo at 4 mg/kg in data set [1] (setting [5]) was found to be 50%. Moreover, in data set [1] (setting [5]), the inhibition in vivo at 8 mg/kg was 86.3%. For the same molecule, the inhibition in vivo at 16 mg/kg in data set [1] (setting [5]) worked out at 82.1%. Moreover, the “factor for the increase in activity” value in data set [1] is recorded as 2-15. For the same molecule, the Activity in % in data set [3] (alone, 1.0 mg/kg per os) worked out at 12.3%; in data set [3] (alone, 2.0 mg/kg per os), 22.05%; in data set [3] (alone, 4.0 mg/kg per os), 58.97%; in data set [3] (alone, 8.0 mg/kg per os), 114.87%; in data set [3] (alone, 16.0 mg/kg per os), 127.18%. Further, the LD50 in data set [2] is 21 mg/kg.
`CCOC(=O)Nc1ccc(NCc2ccc(F)cc2)nc1N` [Flupirtin (Gluconate)] had an ED50 in data set [1] (Mus musculus, po, per os) of 43.9 mg/kg. Moreover, in data set [1] (setting [5]), the inhibition in vivo at 0.56 mg/kg turned out to be 19.2%, the inhibition in vivo at 1.12 mg/kg was 28%, the inhibition in vivo at 2.24 mg/kg worked out at 37.6% and the inhibition in vivo at 4.47 mg/kg was found to be 46.4%. In addition, in data set [1] (setting [5]), the inhibition in vivo at 8.93 mg/kg was 38.4%, the inhibition in vivo at 17.85 mg/kg worked out at 22.4% and the inhibition in vivo at 35.7 mg/kg amounted to 61.6%.
Take `CCOC(=O)Nc1ccc(NCc2ccc(F)cc2)nc1N` [Flupirtin, 2-amino-3-carbethoxyamino-6-(fluoro-benzylamino)-pyridine]: in data set [1] (setting [6]), the ED50 came out at 44 mg/kg. Also, in data set [1] (Mus musculus, po, alone, per os, read-out: lowest analgetically effective dosage), the minimal effective dose was 2.24 mg/kg.
